From patent US8853234B2, “Quinolone analogs and methods related thereto” (Senhwa Biosciences, Inc., priority 2007, dated 2014)

Assays:
[1] = system: HCT-116 human colorectal carcinoma cells; experiment: Alamar Blue (AB) cell proliferation assay, HCT-116; format: cell-based; conditions: 96 h, Alamar Blue cell proliferation inhibition, HCT-116, four days
Protocol: A representative cell-proliferation assay protocol using Alamar Blue dye (stored at 4° C., use 20 ul per well) is described hereafter.
96-Well Plate Setup and Compound Treatment
a. Split and trypsinize cells.
b. Count cells using hemocytometer.
c. Plate 4,000-5,000 cells per well in 100 μl of medium and seed into a 96-well plate according to the following plate layout. Add cell culture medium only to wells B10 to B12. Wells B1 to B9 have cells but no compound added.
d. Add 100 μl of 2× drug dilution to each well in a concentration shown in the plate layout above. At the same time, add 100 μl of media into the control wells (wells B10 to B12). Total volume is 200 μl/well.
e. Incubate four (4) days at 37° C., 5% CO2 in a humidified incubator.
f. Add 20 μl Alamar Blue reagent to each well.
g. Incubate for four (4) hours at 37° C., 5% CO2 in a humidified incubator.
h. Record fluorescence at an excitation wavelength of 544 nm and emission wavelength of 590 nm using a microplate reader.
In the assays, cells are cultured with a test compound for approximately four days, the dye then is added to the cells and fluorescence of […] dye is detected after approximately four hours. Different types of cells can be utilized in the assays (e.g., HCT-116 human colorectal carcinoma cells, PC-3 human prostatic cancer cells and MiaPaca human pancreatic carcinoma cells). Anti-proliferative effects of representative compounds are provided hereafter.
Representative cassette dosing and bioavailability data are given in Table 8, along with cell proliferation inhibition (from Alamar Blue (AB) assay (e.g., Example 45 herein) and rRNA inhibition (from quantitative PCR (QPCR) assay (e.g., Example 46 herein).

[2] = Cassette dosing oral pharmacokinetics in ICR mice; format: in vivo; conditions: ICR (IcrTac:ICR), mouse; cassette oral dose 25 mg/kg, female ICR mice, plasma, 0-8 h, none in table
Protocol: A cassette dosing procedure was utilized to determine pharmaceutical properties of compounds disclosed herein. In this procedure, compounds are selected for each cassette (i.e., cocktail) on the basis that mass spectrometric signals for each compound will not interfere with one another upon mass spectrometric analysis (e.g., will not overlap). The concentration of each compound in the dosing cassette often is about 20 mg/mL to achieve an oral dose level of 25 mg/kg in ICR mice. Aspects of the cassette dosing procedure are described hereafter.
Prepare 0.5 mL of 20 mg/mL dosing solution (in PBS or formulation vehicle) of 12 test compounds. Dilute a dosing solution 20 fold by transferring 10 μL of the stock solution into 190 μL acetonitrile containing 0.1% formic acid to achieve a final concentration of 1 mg/mL. Dilute further a 1 mg/mL solution 1,000 fold by transferring 1 μL of the stock solution into 999 μL acetonitrile containing 0.1% formic acid to achieve a final concentration of 1 μg/mL. Use the 1 μg/mL solution for mass spectrometric method development based on direct infusion. Determine parent/daughter mass spectra of each compound using multiple reaction monitoring (MRM). Compare parent/daughter mass spectra of each compound to assure no cross-reaction interference during LC-MS/MS measurements. Based on MRM mass spectra determine the composition of all cassettes.
Mix 250 μL of four prepared dosing solutions and an oral PK internal standard (20 mg/mL each) according to cassette design to achieve a final concentration of 4 mg/mL. Vortex cassettes rigorously and ultra-sonicate to obtain a clear solution or homogeneous suspension. Use the cassette solutions to dose animals by oral route of administration at 25 mg/kg.
All in vivo experiments follow protocols approved by the Animal Use and Care Committee. Female ICR mice (IcrTac:ICR), 8-10 weeks of age are obtained from Taconic (Hudson, N.Y.). Mice are housed on a 12 h/12 h light/dark cycle with ad libitum access to water and food. After a minimum two week acclimation period, the mice are randomized into groups with a minimum group size of four. The animals used for pharmacokinetic studies have a body-weight range of 25-35 g. A 25 mg/kg (4 mg/ml) dose of a cassette described in Example 1 is orally administered to mice that have been fasted overnight.
After compound administration, serial blood samples are collected via retro-orbital puncture with a capillary tube at various time points (15, 30 minutes and 1, 2, 4, 6 and 8 hours). The samples are transferred to a heparinized 0.5 mL microcentrifuge tube and placed on ice. Plasma is separated by centrifugation and samples are stored at −80° C. until assay.
Dilute a cassette dosing solution (4 mg/mL) four fold by transferring 25 μL of the stock solution into 75 μL of 50% acetonitrile containing 0.1% formic acid to achieve the concentration of 1 mg/mL. Dilute this stock solution further by serial dilutions to make 0.01, 0.1, 1 and 5 μg/mL working standard solutions.
Prepare 500 mL of 0.5 μg/mL solution of bioanalytical internal standard using 100% acetonitrile with 0.1% formic acid. Store the quenching solution in a tightly sealed bottle at 4° C.
Transfer 15 μL of blank mouse plasma to a 96 well plate and precipitate plasma proteins by pipetting of 120 μL of quenching solution to all plasma aliquots. Cover the plate with a matching plate mat and mix well for 30-60 seconds using a vertical multi-tube shaker.
Add 15 μL of the working standard solution of corresponding cassette to quenched plasma and vortex the plate for an additional 30-60 seconds. Then, centrifuge the plate at 4,000 rpm for 10 minutes at 4° C. Without disturbing the plasma protein pellet, transfer 120 μL of the supernatant to a new 96 well plate and dry the sample under nitrogen using a TurboVap® plate evaporator (Caliper Life Sciences; Hopkinton, Mass.). Reconstitute dried residues with 120 μL 20% acetonitrile containing 0.1% formic acid. […]

## O=C(NCCNCCF)c1c(=O)c2ccc(N3CCOCC3)nc2n2c1sc1ccccc12
[1]
  IC50: 135 nM
[2]
  AUC(0-t): 5020 ng·h/mL

## O=C(NCCN1CCC(O)C1)c1c(=O)c2cc(F)c(N3CCOCC3)nc2n2c1sc1ccccc12 (centres unmarked)
[1]
  IC50: 55 nM
[2]
  AUC(0-t): 1090 ng·h/mL

## O=C(NCCNC1CC1)c1c(=O)c2cc(F)c(N3CCOCC3)nc2n2c1sc1ccccc12
[1]
  IC50: 132 nM
[2]
  AUC(0-t): 5150 ng·h/mL

## O=C(NCCn1ccnc1)c1c(=O)c2ccc(N3CCOCC3)nc2n2c1sc1ccccc12
[1]
  IC50: 473 nM
[2]
  AUC(0-t): 4030 ng·h/mL

## O=C(NCC1CCCN1)c1c(=O)c2cc(F)c(N3CCOCC3)nc2n2c1sc1ccccc12 (centres unmarked)
[1]
  IC50: 9 nM
[2]
  AUC(0-t): 1050 ng·h/mL

## CN1CCCC1CNC(=O)c1c(=O)c2cc(F)c(N3CCOCC3)nc2n2c1sc1ccccc12 (centres unmarked)
[1]
  IC50: 128 nM
[2]
  AUC(0-t): 3960 ng·h/mL

## O=C(NCCNC1CCC1)c1c(=O)c2ccc(N3CCOCC3)nc2n2c1sc1ccccc12
[1]
  IC50: 286 nM
[2]
  AUC(0-t): 3180 ng·h/mL

## O=C(NCCNCC1CCCO1)c1c(=O)c2ccc(N3CCOCC3)nc2n2c1sc1ccccc12 (centres unmarked)
[1]
  IC50: 116 nM
[2]
  AUC(0-t): 1900 ng·h/mL

## CN1CCCCC1CNc1ccc2c(=O)c(C(=O)NCc3ccncc3)c3sc4ccccc4n3c2n1 (centres unmarked)
[1]
  IC50: 8 nM
[2]
  AUC(0-t): 790 ng·h/mL

## O=C(NCCN1CCCC1)c1c(=O)c2ccc(N3CCOCC3)nc2n2c1sc1ccccc12
[1]
  IC50: 59 nM
[2]
  AUC(0-t): 2150 ng·h/mL

## Cc1cnc(CNC(=O)c2c(=O)c3ccc(N4CCN(C)CC4)nc3n3c2sc2ccccc23)cn1 [drawing 619]
[1]
  IC50: 391 nM
[2]
  AUC(0-t): 166000 ng·h/mL

## O=C(c1c(=O)c2ccc(N3CCOCC3)nc2n2c1sc1ccccc12)N1CCN(c2ccccn2)CC1
[1]
  IC50: 210 nM
[2]
  AUC(0-t): 1740 ng·h/mL

## CN1CCCC1CCNC(=O)c1c(=O)c2cc(F)c(N3CCOCC3)nc2n2c3ccccc3n(C)c12 (centres unmarked)
[1]
  IC50: 210 nM
[2]
  AUC(0-t): 1190 ng·h/mL

## CN1CCC(N(C)C(=O)c2c(=O)c3cc(F)c(N4CCOCC4)nc3n3c2sc2ccccc23)C1 (centres unmarked)
[1]
  IC50: 174 nM
[2]
  AUC(0-t): 2130 ng·h/mL

## O=C(NCCN1CCOCC1)c1c(=O)c2ccc(N3CCOCC3)nc2n2c1sc1ccccc12
[1]
  IC50: 454 nM
[2]
  AUC(0-t): 2980 ng·h/mL

## CN1CCN(c2ccc3c(=O)c(C(=O)NC4CC4)c4n(C)c5ccccc5n4c3n2)CC1
[1]
  IC50: 202 nM
[2]
  AUC(0-t): 5200 ng·h/mL

## Cn1ccnc1CNC(=O)c1c(=O)c2cc(F)c(N3CCOCC3)nc2n2c1sc1ccccc12
[1]
  IC50: 199 nM
[2]
  AUC(0-t): 20300 ng·h/mL

## CN1CCCN(C(=O)c2c(=O)c3cc(F)c(N4CCOCC4)nc3n3c2sc2ccccc23)CC1
[1]
  IC50: 300 nM
[2]
  AUC(0-t): 4230 ng·h/mL

## CN1CCCC1CCNC(=O)c1c(=O)c2ccc(N3CCOCC3)nc2n2c1sc1ccccc12 (centres unmarked)
[1]
  IC50: 55 nM
[2]
  AUC(0-t): 2590 ng·h/mL

## CN1CCCCC1CNC(=O)c1c(=O)c2ccc(N3CCOCC3)nc2n2c1sc1ccccc12 (centres unmarked)
[1]
  IC50: 6 nM
[2]
  AUC(0-t): 1050 ng·h/mL

## Cn1c2ccccc2n2c3nc(N4CCOCC4)c(F)cc3c(=O)c(C(=O)N3CCN4CCCC4C3)c12 (centres unmarked)
[1]
  IC50: 843 nM
[2]
  AUC(0-t): 3210 ng·h/mL

## O=C(NNC1=NCCN1)c1c(=O)c2cc(F)c(N3CCOCC3)nc2n2c1sc1ccccc12
[1]
  IC50: 1 nM
[2]
  AUC(0-t): 2430 ng·h/mL

## O=C(NCCN1CC=CC1)c1cn2c3c(c(N4CCC(c5cnccn5)C4)c(F)cc3c1=O)Oc1cc3ccccc3cc1-2 (centres unmarked)
[1]
  IC50: 398 nM
[2]
  AUC(0-t): 8040 ng·h/mL

## O=C(NCCNCC(F)(F)F)c1c(=O)c2ccc(N3CCOCC3)nc2n2c1sc1ccccc12
[1]
  IC50: 535 nM
[2]
  AUC(0-t): 9450 ng·h/mL

## Cn1cncc1CNC(=O)c1c(=O)c2ccc(N3CCOCC3)nc2n2c1sc1ccccc12
[1]
  IC50: 174 nM
[2]
  AUC(0-t): 2920 ng·h/mL

## CN1CCCC(NC(=O)c2c(=O)c3cc(F)c(N4CCOCC4)nc3n3c2sc2ccccc23)C1 (centres unmarked)
[1]
  IC50: 27 nM
[2]
  AUC(0-t): 1030 ng·h/mL

## O=C(NCCNCCF)c1c(=O)c2cc(F)c(N3CCOCC3)nc2n2c1sc1ccccc12
[1]
  IC50: 484 nM
[2]
  AUC(0-t): 2220 ng·h/mL

## CN1CCN(c2ccc3c(=O)c(C(=O)NCc4ccccn4)c4sc5ccccc5n4c3n2)CC1
[1]
  IC50: 147 nM
[2]
  AUC(0-t): 51100 ng·h/mL

## CN1CCN(c2nc3c(cc2F)c(=O)c(C(=O)NCc2cn(C)cn2)c2sc4ccccc4n23)CC1
[1]
  IC50: 303 nM
[2]
  AUC(0-t): 45100 ng·h/mL

## Cn1c2ccccc2n2c3nc(N4CCOCC4)c(F)cc3c(=O)c(C(=O)NCCN3CCCC3)c12
[1]
  IC50: 307 nM
[2]
  AUC(0-t): 2000 ng·h/mL

## O=C(NCCN1CCCC1)c1c(=O)c2cc(F)c(N3CCOCC3)nc2n2c1sc1ccccc12
[1]
  IC50: 81 nM
[2]
  AUC(0-t): 2260 ng·h/mL

## O=C(NCCN1CC=CC1)c1c(=O)c2cc(F)c(N3CCOCC3)nc2n2c1sc1ccccc12
[1]
  IC50: 392 nM
[2]
  AUC(0-t): 2000 ng·h/mL

## O=C(NCCN1CC=CC1)c1c(=O)c2ccc(N3CCOCC3)nc2n2c1sc1ccccc12
[1]
  IC50: 130 nM
[2]
  AUC(0-t): 7940 ng·h/mL

## Cn1ccnc1CNC(=O)c1c(=O)c2ccc(N3CCOCC3)nc2n2c1sc1ccccc12
[1]
  IC50: 145 nM
[2]
  AUC(0-t): 5490 ng·h/mL

## O=C(c1c(=O)c2ccc(N3CCOCC3)nc2n2c1sc1ccccc12)N1CCN(c2ncccn2)CC1
[1]
  IC50: 461 nM
[2]
  AUC(0-t): 15300 ng·h/mL

## O=C(NCCNC1CC1)c1c(=O)c2ccc(N3CCOCC3)nc2n2c1sc1ccccc12 [drawing 604]
[1]
  IC50: 65 nM
[2]
  AUC(0-t): 5370 ng·h/mL

## O=C(NCCN1CC=CCC1)c1c(=O)c2ccc(N3CCOCC3)nc2n2c1sc1ccccc12
[1]
  IC50: 98 nM
[2]
  AUC(0-t): 632 ng·h/mL

## Cn1ccnc1CNC(=O)c1c(=O)c2cc(N3CCOCC3)nnc2n2c1sc1ccccc12
[1]
  IC50: 174 nM
[2]
  AUC(0-t): 3780 ng·h/mL

## Cc1nccn1CCNC(=O)c1c(=O)c2ccc(N3CCOCC3)nc2n2c1sc1ccccc12
[1]
  IC50: 166 nM
[2]
  AUC(0-t): 4380 ng·h/mL

## CN1CCCC1CCNC(=O)c1cn2c3c(c(N4CCOCC4)c(F)cc3c1=O)Oc1ccccc1-2 (centres unmarked)
[1]
  IC50: 389 nM
[2]
  AUC(0-t): 1430 ng·h/mL

## CN1CCN(C(=O)c2c(=O)c3cc(F)c(N4CCOCC4)nc3n3c2sc2ccccc23)CC1
[1]
  IC50: 386 nM
[2]
  AUC(0-t): 6160 ng·h/mL

## CN1CCCC1CCNC(=O)c1c(=O)c2cc(F)c(N3CCOCC3)nc2n2c1sc1ccccc12 (centres unmarked)
[1]
  IC50: 337 nM
[2]
  AUC(0-t): 3810 ng·h/mL

## Cn1c2ccccc2n2c3nc(N4CCOCC4)ccc3c(=O)c(C(=O)NCCN3CCCC3)c12
[1]
  IC50: 75 nM
[2]
  AUC(0-t): 1260 ng·h/mL
